Experimental data taken from US8304382B2, “Anti-inflammatory and anti-allergic cyclic peptides” (Cristalia Productos Quimicos Farmaceuticos Ltda., priority 2006, dated 2012).
Bridge positions count the residues as written; N and C are the ends. Peptide text beside a SMILES is read from it.

Key:
trypsin = molecular target: T1, trypsin (Bos taurus, UniProt P00760); assay: Inhibition of trypsin, determination of inhibition constants (Ki); assay type: biochemical
T1 construct: gene PRSS1
T1 sequence (P00760 24-246): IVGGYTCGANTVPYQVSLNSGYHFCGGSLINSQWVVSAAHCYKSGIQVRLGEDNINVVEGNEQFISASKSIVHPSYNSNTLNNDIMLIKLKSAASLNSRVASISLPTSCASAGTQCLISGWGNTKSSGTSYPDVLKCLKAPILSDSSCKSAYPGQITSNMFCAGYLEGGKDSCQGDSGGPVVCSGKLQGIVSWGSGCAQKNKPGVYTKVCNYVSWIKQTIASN
Protocol: The substrate utilized was Abz-Phe-Arg-Ser-Ser-Arg-Gln-EDDnp (SEQ ID NO: 11), a fluorescent analog of bradykinin, purified by way of high pressure liquid chromatography, (HPLC) until purity greater than 95% (single peak) was achieved.
The hydrolysis reactions were conducted using a Hitachi. F-2000 spectrofluorometer, with the excitation and emission slits set at 10 and 20 nm, and the excitation and emission wavelengths at 320 and 420 nm, respectively. The temperature of the reaction cuvette was maintained at 37° C. in a thermostatically controlled compartment.
The enzymatic activity of trypsin (0.5-5 nM) was determined in 50 mM Tris-HCl buffer, pH 8.0, containing 20 mM NaCl at 37° C., with the addition of approximately 0.1-6.0 μM of the fluorescent substrates. The increase in fluorescence was monitored continually for 5 min in the spectrofluorometer. When necessary, the correction of the fluorescent reading was done using the empiric equation described by Araújo et. al., Biochemistry 25; 8519, 2000. Kinetic data were determined from the initial hydrolysis (consumption of substrate less than 10%) and calculations involving kinetic parameters (Km, Vmáx and kcat) were performed using the Michaelis-Menten equation furnished by the GRAFIT for Windows 3.0 program.
To determine the inhibition kinetics of trypsin with the peptides of the present invention, three substrate concentrations were used: a) corresponding to half of the value of Km (0.8 μM); b) corresponding to the whole value of Km (1.6 μM); c) corresponding to slightly more than double the value of Km (3.5 μM). […] Incubation carried out at 37° C. Tris-HCl buffer, pH 8.0, containing 20 mM NaCl at 37° C. For characterization of enzymatic inhibition, a Lineweaver-Burk plot was employed (1/V vs 1/S), and the value of Ki was determined from the relation between the apparent inhibition constant (Ki(app)) and the value of Km for the substrate: Ki(app)=[I]/[(v0/vi)−1] and Ki=Ki(app)/[(Km/[S])+1] where; [I]=inhibitor concentration; (v0/vi)=ratio of the hydrolysis velocities in the absence and presence of inhibitor, respectively. Km/[S]=ratio between Km of the substrate and substrate concentration.

[1] = test system: leukocytes and eosinophils recruited to the alveolar space; assay: Acute pulmonary asthma induced by ovalbumin, bronchoalveolar lavage cell count; assay type: in vivo, BALB/c mice
Protocol: (§1) After the 14th day, the animals were submitted to 3 challenges per week with a 1% OVA aerosol, Immunized animals and challenged only with PBS (phosphate buffered saline) were considered controls. To induce chronic asthma, the animals were challenged 3 times a week during 3 consecutive weeks.
(§2) For the aerosol challenge, the animals were placed in a closed plastic box adapted with an ultra-sonic nebulizer (US-800, ICEL) and exposed to inhalation of 2 mL of a 1% solution of ovalbumin (grade V, Sigma) in saline, over 20 minutes, 24 h after the last aerosol challenge, the animals were sacrificed with a high dose of chloral hydrate to obtain the peripheral blood, the Broncho-Alveolar Lavage (BAL) and the pulmonary tissue to count the total number of leukocytes and eosinophils.
(§3) Groups of animals were treated with 4 nmol or 40 nmol of the peptide identified by SEQ ID NO: 7 intranasally and intraperitoneally 30 minutes before each challenge, and orally 1 hour before each challenge. The group of animals with chronic asthma was treated only with 4 nmol or 40 nmol of the peptide identified by SEQ ID NO: 7_intraperitoneally 30 minutes before each challenge.
(§4) The aerial space was washed with three, 1 mL aliquots of HBSS (Hanks Balanced Salt Solution) EDTA (ethylenediaminetetraacetic acid). After collection, the BAL was immediately centrifuged at 800 rpm for 10 minutes, the supernatant discarded, and the cellular button was re-suspended in 1 mL of HBSS 0.1% BSA (bovine serum albumin) to count the cells. The total cells from the BAL were counted in a Neubauer chamber. Aliquots containing 5×10^5 cells were centrifuged on glass slides using a cytocentrifuge, for 5 minutes at 600 rpm. To determine the percentages of the different cellular populations, the slides were stained with Hema 3 and 300 cells were counted in randomly selected fields. The absolute number of each cellular population in the BAL was obtained by multiplication of the percentages by the total number of cells found in the sample volume.

[2] = test system: leukocytes and eosinophils recruited to the alveolar space; assay: Chronic asthma induced by ovalbumin, bronchoalveolar lavage cell count; assay type: in vivo, BALB/c mice
Protocol: as §1, §2, §3, §4

[3] = test system: recruitment of leukocytes in the peritoneal cavity; assay: Prevention of peritonitis induced by LPS; assay type: in vivo, mice; settings: 24 h
Protocol: Mice were injected intraperitoneally with 4 nmol or 40 nmol of the peptide identified by SEQ ID NO: 7 dissolved in 500 μL of sterile saline solution, 30 minutes prior to administering intraperitoneal injection of LPS (O55:BR 20 μg/mL, Sigma) diluted in 500 μL of sterile saline solution. Animals injected only with sterile saline were considered controls, 24 h after injection of LPS, the animals were sacrificed with a high dose of chloral hydrate to obtain the washing of the peritoneal cavity to count the number of cells (A), neutrophils (B) and macrophages (C). The material removed from the peritoneum was centrifuged for 10 minutes at 1500 rpm and 4° C., the supernatant was separated and frozen at −20° C. for future analyses, while the remaining material containing the cells was re-suspended in PBS 0.1% BSA. The total count was performed in a Neubauer chamber, For the differential count, an aliquot of the cellular suspension was placed on slides and centrifuged (Citospin), stained with Hema 3 and examined under the optical microscope, counting a total of 300 cells. The absolute number of each cellular population was obtained by multiplication of the percentages by the total number of cells found in the sample volume.

[4] = test system: leukocyte rolling in post-capillary venules of the cremaster muscle; settings: topical, LPS-induced rolling; FIG. 2 and 3
[5] = 4 nmol or 40 nmol intraperitoneally, FIG. 6
[6] = 4 or 40 nmol i.p. 30 min before LPS, FIG. 4

Compound: CC[C@H](C)[C@@H]1NC(=O)[C@H](CCCCN)NC(=O)[C@H](CC(=O)O)NC(=O)[C@@H](NC(=O)[C@H](CCCNC(=N)N)NC(=O)[C@H](Cc2c[nH]cn2)NC(=O)[C@@H](N)CC(C)C)CSSC[C@@H](C(=O)O)NC(=O)[C@@H]2CCCN2C(=O)[C@H](CCCCN)NC(=O)[C@H](C)NC(=O)[C@H](CC(=O)O)NC(=O)[C@H](C)NC1=O [SEQ ID NO: 5, Leu1-His2-Arg3-Cys4-Asp5-Lys6-Ile7-Ala8-Asp9-Ala10-Lys11-Pro12-Cys13] (H-LHRCDKIADAKPC-OH; disulfide 4-13)
- Ki (trypsin): 44 nM

Compound: CC[C@H](C)[C@@H]1NC(=O)[C@H]([C@@H](C)O)NC(=O)[C@@H](NC(=O)[C@H](CCC(N)=O)NC(=O)[C@H](CCC(=O)O)NC(=O)[C@@H](N)C(C)C)CSSC[C@@H](C(=O)O)NC(=O)[C@H](CC(=O)O)NC(=O)[C@H](CCCCN)NC(=O)[C@H](C)NC(=O)[C@H](CC(=O)O)NC(=O)CNC(=O)[C@H]([C@@H](C)CC)NC1=O [SEQ ID NO: 3, Val1-Glu2-Gln3-Cys4-Thr5-Ile6-Ile7-Gly8-Asp9-Ala10-Lys11-Asp12-Cys13] (H-VEQCTIIGDAKDC-OH; disulfide 4-13)
- Ki (trypsin): 63.6 nM

Compound: CC[C@H](C)[C@H](N)C(=O)N1CCC[C@H]1C(=O)N[C@@H](CCCNC(=N)N)C(=O)N[C@H]1CSSC[C@@H](C(=O)O)NC(=O)[C@H](CCSC)NC(=O)[C@H](CCCCN)NC(=O)[C@H](C(C)C)NC(=O)CNC(=O)[C@@H]2CCCN2C(=O)[C@H](CCSC)NC(=O)[C@H](C)NC(=O)[C@H](CCCNC(=N)N)NC1=O [SEQ ID NO: 6, Ile1-Pro2-Arg3-Cys4-Arg5-Ala6-Met7-Pro8-Gly9-Val10-Lys11-Met12-Cys13] (H-IPRCRAMPGVKMC-OH; disulfide 4-13)
- Ki (trypsin): 24.2 nM

Compound: CC[C@H](C)[C@@H]1NC(=O)[C@H]([C@@H](C)O)NC(=O)[C@@H](NC(=O)[C@H](CCC(N)=O)NC(=O)[C@H](CCC(=O)O)NC(=O)[C@@H](N)C(C)C)CSSC[C@@H](C(=O)O)NC(=O)[C@H](CC(=O)O)NC(=O)[C@H](CCCCN)NC(=O)[C@H](CCC(=O)O)NC(=O)[C@H](CC(=O)O)NC(=O)CNC(=O)[C@H]([C@@H](C)CC)NC1=O [SEQ ID NO: 2, Val1-Glu2-Gln3-Cys4-Thr5-Ile6-Ile7-Gly8-Asp9-Glu10-Lys11-Asp12-Cys13] (H-VEQCTIIGDEKDC-OH; disulfide 4-13)
- Ki (trypsin): 24 nM

Compound: CC[C@H](C)[C@H](NC(C)=O)C(=O)N1CCC[C@H]1C(=O)N[C@@H](CCCNC(=N)N)C(=O)N[C@H]1CSSC[C@@H](C(=O)O)NC(=O)[C@H](CCSC)NC(=O)[C@H](CCCCN)NC(=O)[C@H](C(C)C)NC(=O)CNC(=O)[C@@H]2CCCN2C(=O)[C@H](CCSC)NC(=O)[C@H](CCCCN)NC(=O)[C@H](CCCNC(=N)N)NC1=O [SEQ ID NO: 8, Ac-Ile1-Pro2-Arg3-Cys4-Arg5-Lys6-Met7-Pro8-Gly9-Val10-Lys11-Met12-Cys13] (Ac-IPRCRKMPGVKMC-OH; disulfide 4-13)
- Ki (trypsin): 24.8 nM

Compound: CC[C@H](C)[C@@H]1NC(=O)[C@H](CCC(=O)O)NC(=O)[C@H](CO)NC(=O)[C@@H](NC(=O)[C@H](CCC(N)=O)NC(=O)[C@H](CCC(N)=O)NC(=O)[C@@H](N)C(C)C)CSSC[C@@H](C(=O)O)NC(=O)[C@@H]2CCCN2C(=O)[C@H](CCCCN)NC(=O)[C@H](C)NC(=O)CNC(=O)[C@H](C)NC1=O [SEQ ID NO: 4, Val1-Gln2-Gln3-Cys4-Ser5-Glu6-Ile7-Ala8-Gly9-Ala10-Lys11-Pro12-Cys13] (H-VQQCSEIAGAKPC-OH; disulfide 4-13)
- Ki (trypsin): 42 nM

Compound: CC[C@H](C)[C@H](NC(C)=O)C(=O)N1CCC[C@H]1C(=O)N[C@@H](CCCNC(=N)N)C(=O)N[C@H]1CSSC[C@@H](C(N)=O)NC(=O)[C@H](CCSC)NC(=O)[C@H](CCCCN)NC(=O)[C@H](C(C)C)NC(=O)CNC(=O)[C@@H]2CCCN2C(=O)[C@H](CCSC)NC(=O)[C@H](CCCCN)NC(=O)[C@H](CCCNC(=N)N)NC1=O [SEQ ID NO: 9, Ac-Ile1-Pro2-Arg3-Cys4-Arg5-Lys6-Met7-Pro8-Gly9-Val10-Lys11-Met12-Cys13-NH2] (Ac-IPRCRKMPGVKMC-NH2; disulfide 4-13)
- Ki (trypsin): 21.8 nM

Compound: CC[C@H](C)[C@H](N)C(=O)N1CCC[C@H]1C(=O)N[C@@H](CCCNC(=N)N)C(=O)N[C@H]1CSSC[C@@H](C(N)=O)NC(=O)[C@H](CCSC)NC(=O)[C@H](CCCCN)NC(=O)[C@H](C(C)C)NC(=O)CNC(=O)[C@@H]2CCCN2C(=O)[C@H](CCSC)NC(=O)[C@H](CCCCN)NC(=O)[C@H](CCCNC(=N)N)NC1=O [SEQ ID NO: 7, Ile1-Pro2-Arg3-Cys4-Arg5-Lys6-Met7-Pro8-Gly9-Val10-Lys11-Met12-Cys13-NH2] (H-IPRCRKMPGVKMC-NH2; disulfide 4-13)
- effect on recruitment of cells to the lung compared with oral dexamethasone 0.3 mg/Kg [1]: similar
- total number of leukocytes recruited to the alveolar space ([1]; 4 nmol or 40 nmol, all routes (intranasal, intraperitoneal, oral), FIG. 5): provoked a decrease
- eosinophils in the bronchoalveolar lavage ([1]; 4 nmol or 40 nmol, all routes, FIG. 5): absence of eosinophils
- effect on recruitment of cells to the lung compared with oral dexamethasone 0.3 mg/Kg [2]: similar
- eosinophils in the bronchoalveolar lavage [2, 5]: decrease in eosinophils
- total number of leukocytes recruited to the alveolar space [2, 5]: provoked a decrease
- Ki (trypsin): 20 nM
- prevention of the recruitment of leukocytes in the peritoneal cavity ([3]; 4 nmol and 40 nmol i.p. 30 min before LPS, compared to the control): ~50%
- recruitment of macrophages in the peritoneal cavity [3, 6]: prevented the recruitment
- recruitment of neutrophils in the peritoneal cavity [3, 6]: prevented the recruitment

Compound: Cys1-Arg2-Lys3-Met4-Pro5-Gly6-Val7-Lys8-Met9-Cys10 [SEQ ID NO: 12]
- inhibition of leukocyte rolling (in words) [4]: maintained inhibitory activity

Compound: CC[C@H](C)[C@H](N)C(=O)N1CCC[C@H]1C(=O)N[C@@H](CCCNC(=N)N)C(=O)N[C@H]1CSSC[C@@H](C(=O)O)NC(=O)[C@H](CCSC)NC(=O)[C@H](CCCCN)NC(=O)[C@H](C(C)C)NC(=O)CNC(=O)[C@@H]2CCCN2C(=O)[C@H](CCSC)NC(=O)[C@H](CCCCN)NC(=O)[C@H](CCCNC(=N)N)NC1=O [SEQ ID NO: 1, Ile1-Pro2-Arg3-Cys4-Arg5-Lys6-Met7-Pro8-Gly9-Val10-Lys11-Met12-Cys13] (H-IPRCRKMPGVKMC-OH; disulfide 4-13)
- Ki (trypsin): 22.5 nM
- type of inhibition of trypsin (trypsin; FIG. 1): simple, competitive inhibition
